Like-named read-outs stand apart in the source and are kept apart here.
What was measured:
[1] = biological target: CK1ε (Homo sapiens, UniProt P49674); assay: CK1ε kinase assay (Caliper LabChip electrophoretic separation of fluoresceinated peptide substrate and product); assay type: biochemical; conditions: 200 pM CK1ε, 50 μM ATP, 1.5 μM peptide, 22 hours at room temperature
Method in brief: (§1)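 Eleven-concentration compound series in kinase reactions run for 22 hours at room temperature. Terminated with EDTA, with product conversion read by electrophoretic separation. Non-linear regression gave IC50.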

[2] = biological target: CK1δ (Homo sapiens, UniProt P48730); assay: CK1δ kinase assay (Caliper LabChip electrophoretic separation of fluoresceinated peptide substrate and product); assay type: biochemical; conditions: 200 pM CK1δ, 50 μM ATP, 1.5 μM peptide, 22 hours at room temperature
Method in brief: as §1

Chain of CK1δ (P48730 whole entry): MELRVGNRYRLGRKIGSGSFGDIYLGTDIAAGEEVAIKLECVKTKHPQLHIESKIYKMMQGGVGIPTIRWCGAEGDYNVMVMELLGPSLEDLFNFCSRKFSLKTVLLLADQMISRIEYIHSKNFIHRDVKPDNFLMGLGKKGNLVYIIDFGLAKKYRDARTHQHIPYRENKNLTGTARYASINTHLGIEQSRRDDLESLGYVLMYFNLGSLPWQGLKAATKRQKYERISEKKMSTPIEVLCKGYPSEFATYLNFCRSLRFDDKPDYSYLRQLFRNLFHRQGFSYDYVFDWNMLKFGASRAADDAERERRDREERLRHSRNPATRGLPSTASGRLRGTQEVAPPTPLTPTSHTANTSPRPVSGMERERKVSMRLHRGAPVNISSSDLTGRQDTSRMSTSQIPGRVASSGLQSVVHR
Chain of CK1ε (P49674 whole entry): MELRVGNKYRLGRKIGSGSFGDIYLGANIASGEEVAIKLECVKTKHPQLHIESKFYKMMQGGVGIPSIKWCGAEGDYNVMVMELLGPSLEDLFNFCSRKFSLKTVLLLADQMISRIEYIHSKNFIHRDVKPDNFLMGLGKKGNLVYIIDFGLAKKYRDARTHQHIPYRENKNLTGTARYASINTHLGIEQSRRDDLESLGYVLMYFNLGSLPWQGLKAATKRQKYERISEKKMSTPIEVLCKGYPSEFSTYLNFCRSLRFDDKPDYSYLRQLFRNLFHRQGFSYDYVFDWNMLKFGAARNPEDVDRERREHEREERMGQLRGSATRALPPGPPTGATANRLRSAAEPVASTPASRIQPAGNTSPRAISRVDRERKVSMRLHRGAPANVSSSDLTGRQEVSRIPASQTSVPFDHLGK

SMILES	IC50 ([1]; read-out: CK1ε IC50 range) [nM]	IC50 ([2]; read-out: CK1δ IC50 range) [nM]	IC50 ([1]; read-out: CK1ε) [nM]	IC50 ([2]; read-out: CK1δ) [nM]
CC1(NC(=O)N2CCn3nc(-c4cccc(Cl)c4)c(C(N)=O)c3C2)CC2(C1)CC2(F)F (single isomer, unassigned) [Compound 330, 2-(3-Chlorophenyl)-N^5-(1,1-difluoro-5-methylspiro[2.3]hexan-5-yl)-6,7-dihydropyrazolo[1,5-a]pyrazine-3,5(4H)-dicarboxamide]	0.01 to 10	0.01 to 10	–	–
CC1(NC(=O)N2CCn3nc(-c4cccc(Cl)c4)c(C(N)=O)c3C2)CC2(C1)CC2(F)F (single isomer, unassigned) [Compound 331, 2-(3-Chlorophenyl)-N^5-(1,1-difluoro-5-methylspiro[2.3]hexan-5-yl)-6,7-dihydropyrazolo[1,5-a]pyrazine-3,5(4H)-dicarboxamide]	0.01 to 10	0.01 to 10	–	–
CC1Cn2nc(-c3ccc(F)c(Cl)c3)c(C(N)=O)c2CN1C(=O)NC(C)(C)C (single isomer, unassigned) [Compound 340, N^5-(tert-Butyl)-2-(3-chloro-4-fluorophenyl)-6-methyl-6,7-dihydropyrazolo[1,5-a]pyrazine-3,5(4H)-dicarboxamide]	10 to 100	0.01 to 10	–	–
CC1Cn2nc(-c3ccc(F)c(Cl)c3)c(C(N)=O)c2CN1C(=O)NC(C)(C)C (single isomer, unassigned) [Compound 341, N^5-(tert-Butyl)-2-(3-chloro-4-fluorophenyl)-6-methyl-6,7-dihydropyrazolo[1,5-a]pyrazine-3,5(4H)-dicarboxamide]	0.01 to 10	10 to 100	–	–
CC1Cn2nc(-c3ccc(F)c(Cl)c3)c(C(N)=O)c2CN1C(=O)NC1CC(F)(F)C1 (single isomer, unassigned) [Compound 342, 2-(3-Chloro-4-fluorophenyl)-N^5-(3,3-difluorocyclobutyl)-6-methyl-6,7-dihydropyrazolo[1,5-a]pyrazine-3,5(4H)-dicarboxamide]	10 to 100	10 to 100	–	–
CC1Cn2nc(-c3ccc(F)c(Cl)c3)c(C(N)=O)c2CN1C(=O)NC1CC(F)(F)C1 (single isomer, unassigned) [Compound 343, 2-(3-Chloro-4-fluorophenyl)-N^5-(3,3-difluorocyclobutyl)-6-methyl-6,7-dihydropyrazolo[1,5-a]pyrazine-3,5(4H)-dicarboxamide]	0.01 to 10	0.01 to 10	–	–
CC1Cn2nc(-c3ccc(F)c(Cl)c3)c(C(N)=O)c2CN1C(=O)NC1(C)CC(F)(F)C1 (single isomer, unassigned) [Compound 344, 2-(3-Chloro-4-fluorophenyl)-N^5-(3,3-difluoro-1-methylcyclobutyl)-6-methyl-6,7-dihydropyrazolo[1,5-a]pyrazine-3,5(4H)-dicarboxamide]	0.01 to 10	0.01 to 10	–	–
CC1Cn2nc(-c3ccc(F)c(Cl)c3)c(C(N)=O)c2CN1C(=O)NC1(C)CC(F)(F)C1 (single isomer, unassigned) [Compound 345, 2-(3-Chloro-4-fluorophenyl)-N^5-(3,3-difluoro-1-methylcyclobutyl)-6-methyl-6,7-dihydropyrazolo[1,5-a]pyrazine-3,5(4H)-dicarboxamide]	0.01 to 10	0.01 to 10	–	–
CC(C)(C)NC(=O)N1Cc2c(C(N)=O)c(-c3ccc(F)c(Cl)c3)nn2CC1C(F)(F)F (single isomer, unassigned) [Compound 346, N^5-(tert-Butyl)-2-(3-chloro-4-fluorophenyl)-6-(trifluoromethyl)-6,7-dihydropyrazolo[1,5-a]pyrazine-3,5(4H)-dicarboxamide]	100 to 2000	100 to 2000	–	–
CC(C)(C)NC(=O)N1Cc2c(C(N)=O)c(-c3ccc(F)c(Cl)c3)nn2CC1C(F)(F)F (single isomer, unassigned) [Compound 347, N^5-(tert-Butyl)-2-(3-chloro-4-fluorophenyl)-6-(trifluoromethyl)-6,7-dihydropyrazolo[1,5-a]pyrazine-3,5(4H)-dicarboxamide]	0.01 to 10	10 to 100	–	–
CC1(NC(=O)N2Cc3c(C(N)=O)c(-c4ccc(F)c(Cl)c4)nn3CC2C2CC2)CC(F)(F)C1 (single isomer, unassigned) [Compound 348, 2-(3-Chloro-4-fluorophenyl)-6-cyclopropyl-N^5-(3,3-difluoro-1-methylcyclobutyl)-6,7-dihydropyrazolo[1,5-a]pyrazine-3,5(4H)-dicarboxamide]	10 to 100	100 to 2000	–	–
CC1(NC(=O)N2Cc3c(C(N)=O)c(-c4ccc(F)c(Cl)c4)nn3CC2C2CC2)CC(F)(F)C1 (single isomer, unassigned) [Compound 349, 2-(3-Chloro-4-fluorophenyl)-6-cyclopropyl-N^5-(3,3-difluoro-1-methylcyclobutyl)-6,7-dihydropyrazolo[1,5-a]pyrazine-3,5(4H)-dicarboxamide]	10 to 100	10 to 100	20.1	34.2
CC(C)(C)NC(=O)N1Cc2c(C(N)=O)c(-c3ccc(F)c(Cl)c3)nn2C(CCO)C1 (single isomer, unassigned) [Compound A96, N^5-(tert-Butyl)-2-(3-chloro-4-fluorophenyl)-7-(2-hydroxyethyl)-6,7-dihydropyrazolo[1,5-a]pyrazine-3,5(4H)-dicarboxamide]	0.01 to 10	0.01 to 10	–	–
COCCC1CN(C(=O)NC(C)(C)C)Cc2c(C(N)=O)c(-c3ccc(F)c(Cl)c3)nn21 (single isomer, unassigned) [Compound A100, N^5-(tert-Butyl)-2-(3-chloro-4-fluorophenyl)-7-(2-methoxyethyl)-6,7-dihydropyrazolo[1,5-a]pyrazine-3,5(4H)-dicarboxamide]	0.01 to 10	10 to 100	–	–
COCCC1CN(C(=O)NC(C)(C)C)Cc2c(C(N)=O)c(-c3ccc(F)c(Cl)c3)nn21 (single isomer, unassigned) [Compound A101, N^5-(tert-Butyl)-2-(3-chloro-4-fluorophenyl)-7-(2-methoxyethyl)-6,7-dihydropyrazolo[1,5-a]pyrazine-3,5(4H)-dicarboxamide]	0.01 to 10	0.01 to 10	–	–
CC(C)(C)NC(=O)N1Cc2c(C(N)=O)c(-c3ccc(F)c(Cl)c3)nn2C(CCF)C1 (single isomer, unassigned) [Compound A102, N^5-(tert-Butyl)-2-(3-chloro-4-fluorophenyl)-7-(2-fluoroethyl)-6,7-dihydropyrazolo[1,5-a]pyrazine-3,5(4H)-dicarboxamide]	0.01 to 10	0.01 to 10	–	–
CC(C)(C)NC(=O)N1Cc2c(C(N)=O)c(-c3ccc(F)c(Cl)c3)nn2C(CCF)C1 (single isomer, unassigned) [Compound A103, N^5-(tert-Butyl)-2-(3-chloro-4-fluorophenyl)-7-(2-fluoroethyl)-6,7-dihydropyrazolo[1,5-a]pyrazine-3,5(4H)-dicarboxamide]	0.01 to 10	0.01 to 10	–	–
CC(C)(C)NC(=O)N1Cc2c(C(N)=O)c(-c3cccc(F)c3)nn2C(CF)C1 (single isomer, unassigned) [Compound A106, N^5-(tert-Butyl)-7-(fluoromethyl)-2-(3-fluorophenyl)-6,7-dihydropyrazolo[1,5-a]pyrazine-3,5(4H)-dicarboxamide]	100 to 2000	100 to 2000	–	–
CC(C)(C)NC(=O)N1Cc2c(C(N)=O)c(-c3cccc(F)c3)nn2C(CF)C1 (single isomer, unassigned) [Compound A107, N^5-(tert-Butyl)-7-(fluoromethyl)-2-(3-fluorophenyl)-6,7-dihydropyrazolo[1,5-a]pyrazine-3,5(4H)-dicarboxamide]	0.01 to 10	0.01 to 10	–	–
CC1CN(C(=O)NC(C)(C)C)Cc2c(C(N)=O)c(-c3cccc(F)c3)nn21 (single isomer, unassigned) [Compound A108, N^5-(tert-Butyl)-2-(3-fluorophenyl)-7-methyl-6,7-dihydropyrazolo[1,5-a]pyrazine-3,5(4H)-dicarboxamide]	10 to 100	10 to 100	–	–
CC1CN(C(=O)NC(C)(C)C)Cc2c(C(N)=O)c(-c3cccc(F)c3)nn21 (single isomer, unassigned) [Compound A109, N^5-(tert-Butyl)-2-(3-fluorophenyl)-7-methyl-6,7-dihydropyrazolo[1,5-a]pyrazine-3,5(4H)-dicarboxamide]	0.01 to 10	0.01 to 10	–	–
CC1CN(C(=O)NC2CC(F)(F)C2)Cc2c(C(N)=O)c(-c3cccc(Cl)c3)nn21 (single isomer, unassigned) [Compound A110, 2-(3-Chlorophenyl)-N^5-(3,3-difluorocyclobutyl)-7-methyl-6,7-dihydropyrazolo[1,5-a]pyrazine-3,5(4H)-dicarboxamide]	0.01 to 10	0.01 to 10	–	–
CC1CN(C(=O)NC2CC(F)(F)C2)Cc2c(C(N)=O)c(-c3cccc(Cl)c3)nn21 (single isomer, unassigned) [Compound A111, 2-(3-Chlorophenyl)-N^5-(3,3-difluorocyclobutyl)-7-methyl-6,7-dihydropyrazolo[1,5-a]pyrazine-3,5(4H)-dicarboxamide]	0.01 to 10	0.01 to 10	–	–
NC(=O)c1c(-c2cccc(Cl)c2)nn2c1CN(C(=O)NC1CC(F)(F)C1)CC2CF (single isomer, unassigned) [Compound A112, 2-(3-Chlorophenyl)-N^5-(3,3-difluorocyclobutyl)-7-(fluoromethyl)-6,7-dihydropyrazolo[1,5-a]pyrazine-3,5(4H)-dicarboxamide]	0.01 to 10	0.01 to 10	–	–
NC(=O)c1c(-c2cccc(Cl)c2)nn2c1CN(C(=O)NC1CC(F)(F)C1)CC2CF (single isomer, unassigned) [Compound A113, 2-(3-Chlorophenyl)-N^5-(3,3-difluorocyclobutyl)-7-(fluoromethyl)-6,7-dihydropyrazolo[1,5-a]pyrazine-3,5(4H)-dicarboxamide]	0.01 to 10	0.01 to 10	–	–
